{"source": "patent US10815219B2", "about": "“2,4-diaminoquinazoline derivatives for inhibiting endoplasmic reticulum (ER) stress” (The Board of Regents of the University of Oklahoma, priority 2017, dated 2020)", "test_system": "INS-1 cells", "assay": "Live-cell phase-contrast images of Tm-treated INS-1 cells", "format": "cell-based, rat", "conditions": "Tm 0.1 μg/mL, 9c 20 μM, 24 h, FIG. 4B", "description": "(A) INS-1 cells were treated with or without Tm (0.1 μg/mL) in the presence of 9c (20 μM) or DMSO for the indicated times. Cleaved caspase-3 and PARP were determined by Western blotting. A-Tubulin was used as a loading control. The data shown are representative of 3 independent experiments. (B) INS-1 cells were treated with or without Tm (0.1 μg/mL) in the presence of 9c (20 μM) or DMSO for 24 h, and live-cell phase-contrast images were acquired (magnification 10×).\nTo determine whether the increase in cell viability following treatment with 9c was caused by a suppression of apoptotic cell death, levels of cleaved caspase-3 and cleaved PARP were assessed by Western blotting. Caspase-3, a member of executioner caspases, plays essential roles in initiating apoptotic signaling and executing the final stages of cell death as it is responsible for the proteolytic cleavage of many key proteins, such as the nuclear enzyme poly (ADP-ribose) polymerase (PARP) which is a family of proteins involved in a number of cellular processes involving DNA repair and cell death. […] However, upon severe ER stress, caspase 3 undergoes proteolytic cleavage to produce two subunits that dimerize to form the active enzyme, which in turns cleaves PARP."}
{"compound": "COc1ccc(CNc2nc(N3CCCCC3CO)nc3ccccc23)cc1", "note": "(racemic) [Compound 9c, (1-(4-((4-methoxybenzyl)amino)quinazolin-2-yl)piperidin-2-yl)methanol]", "values": [{"measurement": "viable cells observed (phase-contrast)", "value": "significantly more viable cells"}]}
